Entries after “also recorded” stand apart in the source; their conditions may differ. Where a SMILES comes first, the peptide text is derived from it. Where no end group is shown, it is not given here. [ ]: non-standard residue; d: D form. Lys(Me3) = C[N+](C)(C)CCCC[C@H](N)C(=O)O; Lys(Me2) = CN(C)CCCC[C@H](N)C(=O)O; Lys(Me) = CNCCCC[C@H](N)C(=O)O
Legend:
KDM4A = experiment: Demethylase activity of wild type KDM4A on peptide substrates (MALDI-TOF MS); format: biochemical, human; settings: 10 µM enzyme, 10 µM peptide, 1 mM 2OG, 50 mM Tris pH 8, 37°C, three hours
Experimental: fritted syringe was rocked for 2-4 hours at room temperature using a fixed angle rocker (Fisher 07202202). After cleavage, the solvent was ejected from the syringe into a 50mL Falcon tube, leaving behind the resin in the syringe. Nitrogen gas was bubbled through the solution to remove roughly 50% of the TFA prior to precipitation via -80°C diethyl ether for 5-10 minutes (Acros #326860010). Precipitate was then pelleted via centrifugation (Sorvall Legend XTR) at 3000 rpm for 5 mins. Supernatant was decanted. Crude peptide was then resuspended in 0.1% TFA prior to purification and characterization as described for peptides from the peptide facility. The integrity of the purified peptides was confirmed by MALDI-TOF MS. The complete list is in Table S1.
3. Expression and purification of wild type KDM4A-E […]
bacterial expression construct pNIC28-Bsa4 (Addgene ID: 38846) was obtained from Addgene […]
E. Coli BL21 (DE3) competent cells (Invitrogen) using pNIC28-Bsa4 kanamycin-resistant vector.
A single colony was picked up and grown overnight at 37 °C in 10 mL of Luria-Bertani (LB) broth in the presence of 50 μg/mL kanamycin and 35 μg/mL chloramphenicol. The culture was diluted 100-fold and allowed to grow at 37 °C to an optical density (OD600) of 0.8, and protein expression was induced overnight at 17 °C with 0.6 mM IPTG in an Innova 44® Incubator shaker (New Brunswick Scientific). Proteins were purified as follows: harvested cells were resuspended in 15 mL lysis buffer (50 mM Tris-HCl pH 8.0, 200 mM NaCl, 5 mM b-mercaptoethanol, 10% glycerol, 25 mM imidazole, Lysozyme, DNase, and Roche protease inhibitor cocktail). […]
After passing 20 volumes of washing buffer (50 mM Tris-HCl pH 8.0, 200 mM NaCl, 5 mM b-mercaptoethanol, 10% glycerol, and 25 mM imidazole), proteins were eluted with a buffer containing 50 mM Tris-HCl pH 8.0, 200 mM NaCl, 5 mM b-mercaptoethanol, 10% glycerol, and 400 mM imidazole. […] The protein concentration was determined […]
8.0, 200 mM NaCl, and 10% glycerol. […] The protein concentration was determined using Bradford assay kit (BioRad Laboratories) with BSA as a standard. […]

KDM4A-E = experiment: Demethylase activity of KDM4 subfamily on peptide substrates (MALDI-TOF MS), result worded for KDM4A-E together; format: biochemical, human; settings: wild-type KDM4A-E, 10 µM enzyme, 10 µM peptide, 1 mM 2OG, 50 mM Tris pH 8, 37°C, three hours
CBX1 chromodomain [1] = target: T1, CBX1 chromodomain (Homo sapiens, UniProt P83916); experiment: Isothermal titration calorimetry of peptide binding to CBX1 chromodomain; settings: ITC, 25 °C, 1.1 mM peptide into 110 µM CBX1 chromodomain; for Kd: 200mM NaCl, 10% glycerol, 50mM Tris pH 8.0, single binding site model
T1 construct: occupied by CBX1 chromodomain at a concentration of 110 µM; 6xHis (N); made in house
Experimental: (§1) 7. Expression and purification of lysine methyltransferases and Chromodomains […]
17. Isothermal Titration Calorimetry
Isothermal titration calorimetry (ITC) was performed with an ITC200 instrument (MicroCal, Malvern). Experiments were conducted at 25 °C while stirring at 750 rpm. Buffers of protein […]
were matched to 200mM NaCl, 10% glycerol, and 50mM Tris pH 8.0. Each titration was performed as follows: one initial injection of 0.4 µL for 0.8 seconds, followed by 19 injections of 2.0 µL for 4 seconds, with ≥2 mins between each injection. The initial injection was discarded prior to data analysis. The microsyringe (40µL) was loaded with 1.1 mM peptide and injected into the cell (200µL), occupied by CBX1 chromodomain at a concentration of 110 µM. Data was fitted to a single binding site model using Microcal ITC200 Software with Origin Lab 7.
(§2) KDM4A mammalian expression plasmid in CMV vector was purchased from Addgene (plasmid #24180). Full-length G9a in pCDNA3 vector was kind from Prof. Minkui Luo at the Memorial Sloan-Kettering Cancer Center. HEK293T/17 cells (ATCC) were grown in a T25 containing Delbucco’s Modified Eagle Medium (DMEM) (Corning) with 10% FBS at 37 °C, 5% CO2, and 95% relative humidity. When cells reached 80% confluency, 5 µg of plasmid and 10 µg

CBX1 chromodomain [2] = target: T1, CBX1 chromodomain; experiment: as above; settings: ITC, T 288.15 K in Table S6
G9a = experiment: Methylation of eIF4A3-K374 peptides by KMT (MALDI-TOF MS); format: biochemical; settings: 20 µM KMT, 10 µM peptide, 200 µM SAM
Experimental: as §1
16. Methylation activity of wild type KMTs on eIF4A3-K374me0/1/2 peptides 20 µM lysine methyltransferase, 10 µM eIF4A3-me0/1/2 peptide and 200 µM SAM were incubated at room temperature for 1-2 hours in 50 mM Tris pH 8.0. Reaction was stopped by storing the microcentrifuge tubes on ice. After mixing, 0.8 µL of sample and 0.8 µL of α-cyano-4-hydroxycinnamic acid (CHCA) (dissolved in 50:50 0.1% TFA and acetonitrile) were combined on a MALDI plate. Samples were ionized using reflectron positive mode on Bruker Daltonics UltrafleXtreme MALDI TOF with detection carried out from 700-3500 m/z. Bruker Flex Analysis software was used to analyze the MALDI-TOF MS spectra.
17. Isothermal Titration Calorimetry […]
The microsyringe (40µL) was loaded with 1.1 mM peptide and injected into the cell (200µL), occupied by CBX1 chromodomain at a concentration of 110 µM. Data was fitted to a single binding site model using Microcal ITC200 Software with Origin Lab 7.
as §2

KDM4C-I73AzF = experiment: Photo-crosslinking with TAMRA peptides, in-gel fluorescence; format: binding, human; settings: 10 µM peptide, 20 µM protein, UV irradiation
Experimental: (§3) 10. Photo-crosslinking experiment with peptides and in-gel fluorescence For peptide photo-crosslinking experiments, 10 µM TAMRA-labeled H3K9me0 or H3K9me3 […]
(§4) mM ascorbic acid, 50 mM tris pH 8.0, 50 μM Fe(NH4)2(SO4)2, 200 µM 2OG. Samples were […]
(§5) 365nm 100% irradiated) for 30 minutes at 4 °C on ice. Negative controls were kept in dark on ice for the full 30 minutes. 10 µL of sample was mixed with 5 µL 4X Laemmli dye (Biorad #1610747) and separated on a 4-12 % Criterion XT precast gel (Bio-Rad Laboratories). Gels were imaged on a ChemiDoc MP Imaging system using TAMRA fluorophore excitation wavelength (Emission filter 605/50, Light: green Epi illumination). The gel was subsequently stained with Coomassie brilliant blue R-250 staining solution to confirm the presence of proteins in all the samples. […]

KDM4D-L75AzF = experiment: as above; format: binding, human; settings: 10 µM peptide, 20 µM protein, UV irradiation
Experimental: as §3, §4, §5

[3] = system: catalytically dead AzF variants of KDM4A; experiment: as above; format: binding, human; settings: majority of the catalytically dead AzF variants, 10 µM peptide, 20 µM protein, 365 nm UV, 30 minutes
Experimental: as §3, §4, §5

wild-type KDM4A = experiment: as above; format: binding, human; settings: 10 µM peptide, 20 µM protein, 365 nm UV, 30 minutes at 4 °C
Experimental: as §3, §4, §5

KDM4A-I71AzF [4] = experiment: as above; format: binding, human
KDM4E-L72AzF = experiment: as above; format: binding; settings: 10 µM peptide, 20 µM protein, UV irradiation
Experimental: as §3, §4, §5

KDM4A-I71AzF [5] = experiment: Demethylase activity of AzF mutant on peptide substrates (MALDI-TOF MS); format: biochemical, human; settings: 10 µM enzyme, 10 µM peptide, 1 mM 2OG, 50 mM Tris pH 8, 37°C, three hours

T1 sequence (P83916 21-79 limits assumed): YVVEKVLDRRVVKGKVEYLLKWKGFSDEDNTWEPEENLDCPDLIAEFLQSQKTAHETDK

Compound	demethylation by KDM4A (KDM4A)	Kd (CBX1 chromodomain [1]) [µM]	TΔS (CBX1 chromodomain [2]) [kcal/mol]	ΔG (CBX1 chromodomain [2]) [kcal/mol]	ΔH (CBX1 chromodomain [2]) [kcal/mol]	ΔS (CBX1 chromodomain [2]) [cal/mol/degree]	methylation by G9a (in words) (G9a)	other results
CC[C@H](C)[C@H](NC(=O)[C@H](C)NC(=O)[C@@H](NC(=O)CNC(=O)[C@H](CCCC[N+](C)(C)C)NC(=O)[C@H](CCCNC(=N)N)NC(=O)CNC(=O)[C@H](Cc1ccc(O)cc1)NC(=O)[C@H](CCCNC(=N)N)NC(=O)CNC(=O)[C@H](CO)NC(=O)[C@H](CCCNC(=N)N)NC(=O)CN)C(C)C)C(=O)N[C@@H](CC(N)=O)C(=O)N[C@@H](Cc1ccccc1)C(=O)N[C@H](C(=O)N[C@@H](CCCCN)C(N)=O)C(C)C [compound 13] (H-GRSGRYGR[Lys(Me3)]GVAINFVK-NH2)	indeed demethylated by KDM4A in vitro	23.2 ± 2	2.472	-6.230	-3.758	8.58		demethylation by KDM4A-E (KDM4A-E): demethylated by multiple KDM4s; also recorded: robust demethylation
CC[C@H](C)[C@H](NC(=O)[C@H](C)NC(=O)[C@@H](NC(=O)CNC(=O)[C@H](CCCCN(C)C)NC(=O)[C@H](CCCNC(=N)N)NC(=O)CNC(=O)[C@H](Cc1ccc(O)cc1)NC(=O)[C@H](CCCNC(=N)N)NC(=O)CNC(=O)[C@H](CO)NC(=O)[C@H](CCCNC(=N)N)NC(=O)CN)C(C)C)C(=O)N[C@@H](CC(N)=O)C(=O)N[C@@H](Cc1ccccc1)C(=O)N[C@H](C(=O)N[C@@H](CCCCN)C(N)=O)C(C)C [compound 23] (H-GRSGRYGR[Lys(Me2)]GVAINFVK-NH2)	demethylated only to eIF4A3-K374me1 by KDM4A; also recorded: demethylated to Kme1 by KDM4A	95.2 ± 1.4	-1.106	-5.470	-6.576	-3.84	methylated by G9a; also recorded: trimethylated by G9a	
(5/6)-TA M R A-GGARTKQTARKme3STGGKAPR [compound 6, tetramethylrhodamine (TAMRA)-attached H3K9me3 peptide]								crosslinking with KDM4C-I73AzF (KDM4C-I73AzF): successful crosslinking; crosslinking with KDM4D-L75AzF (KDM4D-L75AzF): successful crosslinking; crosslinking with catalytically dead AzF variants [3]: ineffective to trap the substrate; crosslinking with wild-type KDM4A (wild-type KDM4A): failed to undergo crosslinking; crosslinking with KDM4A-I71AzF (KDM4A-I71AzF [4]; 10 µM peptide, 20 µM protein, 365 nm UV, 30 minutes at 4 °C): robust crosslinking; crosslinking without UV exposure (control) (KDM4A-I71AzF [4]; kept in dark on ice 30 minutes): no fluorescence band was detected; crosslinking with KDM4E-L72AzF (KDM4E-L72AzF): successful crosslinking
GRSGRYGR[Lys(Me)]GVAINFVK [compound 22, eIF4A3-K374me1 peptide]	not demethylated by KDM4A; also recorded: failed to convert to Kme0		0	0	0	0	methylated by G9a; also recorded: trimethylated by G9a	binding to CBX1 chromodomain (in words) (CBX1 chromodomain [1]; 50mM Tris pH 8.0): no binding; also recorded: not bind to CBX1; also recorded: no detectable interaction
KSAPSTGGVKme3KPHRYKPGTGK [compound 5, H3K36me3 peptide]								demethylation by I71AzF mutant (KDM4A-I71AzF [5]): modestly
